Laboratory results from paper PMC7586344, “Discovery of Novel pERK1/2- or β-Arrestin-Preferring 5-HT1A Receptor-Biased Agonists: Diversified Therapeutic-like versus Side Effect Profile” (Journal of Medicinal Chemistry, 2020).

Experiments:
[1] = Preliminary metabolic stability in rat liver microsomes; type: in vitro ADME; conditions: pH 7.4, RLMs 1 mg/mL, 50 μM compound, 37 °C
HepG2 cells = test: Hepatotoxicity, HepG2 cell viability; type: cell-based, human; conditions: 72 h incubation
H1 = molecular target: T1, H1 (Homo sapiens, UniProt P35367); test: Off-target binding screen; conditions: 1000 nM, read-out: % Inhibition of Control Specific Binding
T1 construct: Eurofins Pharma Discovery Services (contract assay)
T1 sequence (P35367 whole entry): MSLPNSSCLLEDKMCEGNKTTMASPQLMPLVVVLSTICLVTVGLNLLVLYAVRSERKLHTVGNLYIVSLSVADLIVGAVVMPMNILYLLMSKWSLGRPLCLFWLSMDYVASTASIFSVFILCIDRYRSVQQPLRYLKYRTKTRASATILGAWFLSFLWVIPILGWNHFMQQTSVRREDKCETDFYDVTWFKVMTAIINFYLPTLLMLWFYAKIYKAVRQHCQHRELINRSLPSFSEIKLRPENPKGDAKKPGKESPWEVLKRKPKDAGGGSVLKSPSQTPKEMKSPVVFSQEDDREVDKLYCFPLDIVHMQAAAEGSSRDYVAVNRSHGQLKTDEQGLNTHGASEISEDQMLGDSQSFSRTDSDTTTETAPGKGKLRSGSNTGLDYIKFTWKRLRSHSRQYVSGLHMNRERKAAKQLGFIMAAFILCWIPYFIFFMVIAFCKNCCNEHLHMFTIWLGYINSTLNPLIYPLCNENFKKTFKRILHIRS

male Wistar rats [2] = test: Porsolt forced swimming test; type: in vivo; conditions: rat FST, 60 min before test, mean ± SEM
Experimental: The experiments were performed on male Wistar rats (170–200 g) obtained from an accredited animal facility at the Jagiellonian University Medical College, Krakow, Poland. […] Standard laboratory food (LSM-B) and filtered water were freely available. […] Each animal was assigned randomly to treatment groups and only used once (no repeated use of animals). All the experiments were performed by two observers unaware of the treatment applied between 9:00 and 14:00 on separate groups of animals. […] All efforts were made to minimize suffering and to reduce the number of animals used in the experiments and to use only the number of animals necessary to produce reliable scientific data. Each experimental group consisted of 6–8 animals. […] The examined compounds were administered orally 60 min before tests. In antagonism experiments, WAY100635 (Tocris, UK) was administered subcutaneously 75 min before testing. Control animals received vehicle (distilled water) according to the same schedule. […] On the following day (24 h later), the rats were re-placed in the cylinder after administration of test compounds and the total duration of immobility was recorded during the 5-min test period. […] Fresh water was used for each animal.

male Wistar rats [3] = test: Lower lip retraction; type: in vivo; conditions: rat; for LLR score: 50 min before test, score 0-10; for ability to induce lower lip retraction (LLR), in words: p.o.
Experimental: The experiments were performed on male Wistar rats (170–200 g) obtained from an accredited animal facility at the Jagiellonian University Medical College, Krakow, Poland. […] All efforts were made to minimize suffering and to reduce the number of animals used in the experiments and to use only the number of animals necessary to produce reliable scientific data. Each experimental group consisted of 6–8 animals.
The examined compounds were administered orally 60 min before tests. In antagonism experiments, WAY100635 (Tocris, UK) was administered subcutaneously 75 min before testing. Control animals received vehicle (distilled water) according to the same schedule.
Observations were made according to the method described by Kleven et al.([68]) Animals were observed individually during a 10 min period for 10 s of observation per animal. During each of these observation periods, the uninterrupted presence for at least 3 s (1) or absence (0) of LLR was recorded. This cycle was repeated 10 times over a 10 min period; thus, the incidence of a particular behavior could vary from 0 to 10.

[4] = In vitro rat plasma protein binding (ultrafiltration); type: in vitro ADME; conditions: rat serum; for fraction unbound at 30 min, 3 µg/mL / fraction unbound at 30 min, 30 µg/mL: male, Wistar, read-out: PPB ± SD (converted)
Experimental: Fresh blood was harvested from male adult Wistar rats that were sacrificed by exsanguination. The blood was allowed to clot for 20 min at room temperature and then centrifuged at 3000 rpm for 10 min (Universal 32, Hettich, Germany). 56 and 44 dissolved in water were added in volume of 10 μL to separate glass tubes containing 1 mL aliquots of rat serum to achieve final concentrations of 3 and 30 μg/mL each. All tests were run in triplicate. After vortexing, the serum samples were incubated in a water bath at 37 °C for 30 min with gentle shaking. Following this incubation period, 100 μL of serum samples from each tube were transferred to Eppendorf tubes and frozen at −80 °C for analysis. The remaining serum was transferred into Centrifree ultrafiltration devices with Ultracel regenerated cellulose membrane (Merck, Darmstadt, Germany) and centrifuged at 1000g for 15 min (EBA III centrifuge, Hettich, Germany). The collected ultrafiltrates were frozen (−80 °C) for further analysis.

panel of 45 off-targets = conditions: highest off-target affinity, estimated from screening data

SMILES	remaining at 2 h, 50 μM [1]	hepatotoxicity 50% viability of HepG2 cells (HepG2 cells)	inhibition at 1 µM (H1)	Immobility time (male Wistar rats [2]; 0.04 mg/kg p.o.)	LLR score (male Wistar rats [3]; 0.04 mg/kg p.o.)	ability to induce lower lip retraction (LLR), in words (male Wistar rats [3])	fu ± SD ([4]; C0 3 µg/mL)	fu ± SD ([4]; C0 30 µg/mL)	fraction unbound at 30 min, 3 µg/mL ([4]; C0 3 µg/mL)	fraction unbound at 30 min, 30 µg/mL ([4]; C0 30 µg/mL)	Immobility time (male Wistar rats [2]; 1.25 mg/kg p.o.)	LLR score (male Wistar rats [3]; 0.312 mg/kg p.o.)	LLR score (male Wistar rats [3]; 1.25 mg/kg p.o.)	affinity for some of the off-targets (pKi) (panel of 45 off-targets)
O=C(c1ccc(F)c(Cl)c1)N1CCC(F)(CNCCOc2ccccc2)CC1 [Compound 3]	59.2%	>50 µM	-9%											
CNc1ccccc1OCCNCC1(F)CCN(C(=O)c2ccc(F)c(Cl)c2)CC1 [Compound 44, (3-Chloro-4-fluorophenyl)(4-fluoro-4-(((2-(2-(methylamino)phenoxy)ethyl)amino)methyl)piperidin-1-yl)methanone]			-5%	199.50 ± 12.35 s	0	did not induce any significant LLR	1.6 ± 0.1%	1.8 ± 0.1%	0.016	0.018				
O=C(c1ccc(F)c(Cl)c1)N1CCC(F)(CNCCOc2cccc3[nH]ccc23)CC1 [Compound 56, (4-(((2-((1H-Indol-4-yl)oxy)ethyl)amino)methyl)-4-fluoropiperidin-1-yl)(3-chloro-4-fluorophenyl)methanone]	87.4%	>50 µM				elicited a full LLR	1.1 ± 0.1%	1.9 ± 0.1%	0.011	0.019	67.63 ± 7.83 s	10 ± 0	10 ± 0	~8
